In patent publication US20240150367A1, “NITROGEN-CONTAINING SPIRO CYCLIC COMPOUNDS AND PHARMACEUTICAL USE THEREOF” (Japan Tobacco Inc., priority 2009, published 2024):

Assays:
[1] = biological target: hJAK3 kinase domain (aa781-end) (Homo sapiens (Human), UniProt P52333); experiment: JAK3 activity inhibition, kinase reaction (Test 1); details: for inhibition at 1 µM: read-out: JAK3 % Inhibition; for IC50: read-out: JAK3 IC50
Procedure: JAK3 activity inhibitory effects of test compounds were evaluated by the following kinase reactions.
In the kinase reactions, fused proteins (6His tag-fused hJAK3 kinase domain (aa781-end)) which were coexpressed in Sf21 cells and purified by Ni2+/NTA agarose were used.
A well in which ATP was not added was set out as a blank well.
Plates were let stand at room temperature for 10 minutes from starting reactions.
One hour after the addition of the buffer for detection, fluorescence counts of each well were measured by a fluorescence microplate reader.
Data were obtained by deducting the average Ratio of a blank well from Ratio of each well.

[2] = biological target: hJAK2 kinase domain (aa808-end) (Homo sapiens (Human), UniProt O60674); experiment: JAK2 activity inhibition, kinase reaction (Test 2); format: biochemical
hJAK2 kinase domain (aa808-end), sequence (O60674 808-1132 limits assumed): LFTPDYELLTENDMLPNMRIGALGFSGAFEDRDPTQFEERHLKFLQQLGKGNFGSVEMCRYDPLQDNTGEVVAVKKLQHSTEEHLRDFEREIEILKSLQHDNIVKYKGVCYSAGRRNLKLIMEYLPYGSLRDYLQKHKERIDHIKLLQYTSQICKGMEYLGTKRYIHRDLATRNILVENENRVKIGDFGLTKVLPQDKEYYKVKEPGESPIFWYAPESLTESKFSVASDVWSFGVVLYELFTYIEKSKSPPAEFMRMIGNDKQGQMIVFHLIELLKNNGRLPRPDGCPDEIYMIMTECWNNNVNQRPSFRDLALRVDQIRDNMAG

hJAK3 kinase domain (aa781-end), sequence (P52333 781-1124 limits assumed): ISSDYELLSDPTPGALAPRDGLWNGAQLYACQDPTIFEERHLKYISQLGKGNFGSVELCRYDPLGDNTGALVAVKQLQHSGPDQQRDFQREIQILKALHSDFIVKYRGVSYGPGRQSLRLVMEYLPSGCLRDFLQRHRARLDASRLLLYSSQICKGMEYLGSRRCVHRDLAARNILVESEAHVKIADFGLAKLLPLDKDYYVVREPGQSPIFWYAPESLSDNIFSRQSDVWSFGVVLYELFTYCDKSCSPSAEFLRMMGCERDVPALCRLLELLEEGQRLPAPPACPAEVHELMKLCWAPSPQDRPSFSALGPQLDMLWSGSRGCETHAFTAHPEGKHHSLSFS

SMILES | IC50 [1] | also measured
N#CC1CCN(C(=O)N2CCCC23CCN(c2ncnc4[nH]ccc24)C3)C1 (racemic) [Compound 51] |  | inhibition at 1 µM [1]: 41%
c1nc(N2CCCC3(CCCCCN3)C2)c2cc[nH]c2n1 (racemic) [Compound 75] |  | inhibition at 1 µM [1]: 1%
c1nc(N2CCC3(CCCCN3)C2)c2cc[nH]c2n1 (racemic) [Compound 79] |  | inhibition at 1 µM [1]: 38%
CC(=O)N1CCCC12CCN(c1ncnc3[nH]ccc13)C2 (racemic) [Compound 87] |  | inhibition at 1 µM [1]: 39%
N#CCC(=O)N1CCCC12CCCN(c1c(Cl)cnc3[nH]ncc13)C2 (racemic) [Compound 91] |  | inhibition at 1 µM [1]: 42%
CC1CN(C(=O)CC#N)C12CCCN(c1ncnc3[nH]ccc13)C2 (single isomer, unassigned) [Compound 1, 3-[3-methyl-6-(7H-pyrrolo[2,3-d]pyrimidin-4-yl)-1,6-diazaspiro[3.5]non-1-yl]-3-oxopropionitrile] |  | IC50 [2]: 1 nM
CC1CN(C(=O)CC#N)C12CCCN(c1ncnc3[nH]ccc13)C2 (single isomer, unassigned) [Compound 2, 3-[3-methyl-6-(7H-pyrrolo[2,3-d]pyrimidin-4-yl)-1,6-diazaspiro[3.5]non-1-yl]-3-oxopropionitrile] |  | IC50 [2]: 1.7 nM
CC(O)C(=O)N1CCCC12CCCN(c1ncnc3[nH]ccc13)C2 (single isomer, unassigned) [Compound 30] | 580 nM | 
CC1CC2(CCCN2C(=O)CC#N)CN1c1ncnc2[nH]ccc12 (single isomer, unassigned) [Compound 33] | 480 nM | 
CC1N(c2ncnc3[nH]ccc23)CCC12CCCN2C(=O)CC#N (single isomer, unassigned) [Compound 34] | 36 nM | 
N#CCC(=O)N1CCC12CCCN(c1ncnc3[nH]ccc13)C2 (stereo not drawn) [Compound 3, 3-oxo-3-[6-(7H-pyrrolo[2,3-d]pyrimidin-4-yl)-1,6-diazaspiro[3.5]non-1-yl]-propionitrile] |  | IC50 [2]: 2.2 nM
N#CCC(=O)N1CC(F)(F)C12CCN(c1ncnc3[nH]ccc13)C2 (stereo not drawn) [Compound 4, 3-[3,3-difluoro-6-(7H-pyrrolo[2,3-d]pyrimidin-4-yl)-1,6-diazaspiro[3.4]oct-1-yl]-3-oxopropionitrile] |  | IC50 [2]: 1.7 nM
N#CCC(=O)N1CC(F)(F)C12CCCN(c1ncnc3[nH]ccc13)C2 (stereo not drawn) [Compound 5, 3-[3,3-difluoro-6-(7H-pyrrolo[2,3-d]pyrimidin-4-yl)-1,6-diaza-spiro[3.5]non-1-yl]-3-oxo-propionitrile] |  | IC50 [2]: 1.9 nM
N#CCC(=O)N1CCCC12CCCN(c1ncnc3[nH]ccc13)C2 (stereo not drawn) [Compound 7, 3-oxo-3-[7-(7H-pyrrolo[2.3-d]pyrimidin-4-yl)-1,7-diazaspiro[4.5]dec-1-yl)propionitrile] |  | IC50 [2]: 4.7 nM
CC1N(c2ncnc3[nH]ccc23)CCC12CCCN2C(=O)CC#N (stereo not drawn) [Compound 13] |  | inhibition at 1 µM [1]: 26%
CC1CC2(CCCN(c3ncnc4[nH]ccc34)C2)N1C(=O)CC#N (stereo not drawn) [Compound 14] | 41 nM | 
CC1CC2(CCCN(c3ncnc4[nH]ccc34)C2)N1C(=O)CC#N (stereo not drawn) [Compound 20] | 100 nM | 

More lines, main results first:

IC50 [1] | SMILES | also measured
530 nM | CC(O)C(=O)N1CCCC12CCCN(c1ncnc3[nH]ccc13)C2 (single isomer, unassigned) [Compound 35] | 
150 nM | CC(O)C(=O)N1CCCC12CCCN(c1ncnc3[nH]ccc13)C2 (single isomer, unassigned) [Compound 36] | 
100 nM | CC1CC2(CCCN2C(=O)CC#N)CN1c1ncnc2[nH]ccc12 (single isomer, unassigned) [Compound 42] | 
40 nM | C[C@H](O)C(=O)N1CCCC12CCCN(c1ncnc3[nH]ccc13)C2 (stereo partly drawn) [Compound 43] | 
270 nM | CO[C@@H](C)C(=O)N1CCCC12CCCN(c1ncnc3[nH]ccc13)C2 (stereo partly drawn) [Compound 45] | 
270 nM | CO[C@H](C)C(=O)N1CCCC12CCCN(c1ncnc3[nH]ccc13)C2 (stereo partly drawn) [Compound 46] | 
110 nM | CC(=O)O[C@@H](C)C(=O)N1CCCC12CCCN(c1ncnc3[nH]ccc13)C2 (stereo partly drawn) [Compound 47] | 
